experiment: Raw material test against sweat odour (masking of malodour standard, assessor panel); conditions: not given

Question: Which “Increase In intensity” value does the source give for C/C=C/C(=O)OC(C)C1CCCCC1 (stereo not shown) [CROTONIC ACID-1-CYCLOHEXYL ETHYL ESTER] here?
Answer: 0.8

Question: And the Odour reduction value?
Answer: 3.7

same assay, conditions: Table 1; 1 μl fragrance + 5 μl 3-mercapto-3-methyl-hexan-1-ol (0.1% in DPG) in 7 l air, 15 h at approx. 20° C.; scale 1 to 9, malodour standard mixture = 6; mean of at least 8 assessors

Question: Which results are given for CCCCCCC1OC(=O)CC1C (mixture of isomers) [(E/Z) 5-HEXYLDIHYDRO-4-METHYL-2-FURANONE]?
Answer: Increase In intensity: 1.2; Odour reduction value: 4.2

Question: For C=CCOC(=O)CCCCCC [ALLYL HEPTYLATE], which “Increase In intensity” value is on record?
Answer: −0.5

Question: And the Odour reduction value?
Answer: 3.0

Question: For CC1=CCC(C(C)CC=O)CC1 (stereo not shown), which “Increase In intensity” value is on record?
Answer: 0.9

Question: And the Odour reduction value?
Answer: 3.9

Question: What does the source list for COC(=O)c1c(C)cc(O)c(C)c1O [2,4-DIHYDROXY-3.6-DIMETHYLBENZOIC ACID METHYL ESTER]?
Answer: Increase In intensity: 1.3; Odour reduction value: 3.8

Question: Which “Increase In intensity” value does the source give for O=C1CCCCCCCCCCCCCCO1 [1.15-PENTADECANOLIDE] here?
Answer: 1.1

Question: What about the Odour reduction value of the same molecule?
Answer: 3.6

Question: Which “Increase In intensity” value does the source give for CC(=O)CC(C)(C)c1ccccc1 [4-METHYL-4-PHENYL-2-PENTANONE] here?
Answer: 1.4

Question: What about the Odour reduction value of the same molecule?
Answer: 4.2

Question: What does the source list for C=CC(C)(O)CCC=C(C)C (stereo not shown) [LINALOOL]?
Answer: Increase In intensity: 1.0; Odour reduction value: 5.0

Question: What does the source list for CC(=CCC1CCC=C(C)C1(C)C)CO (stereo not shown)?
Answer: Increase In intensity: 0.0; Odour reduction value: 3.0

Question: Which “Increase In intensity” value does the source give for CCc1ccc(CC(C)(C)C=O)cc1 here?
Answer: −1.9

Question: What about the Odour reduction value of the same molecule?
Answer: 3.7

Question: What does the source list for CC(=O)OCC(C)CC(C)(C)c1ccccc1 (stereo not shown) [ACETIC ACID-2,4-DIMETHYL-4-PHENYLPENTYL ESTER]?
Answer: Increase In intensity: 1.6; Odour reduction value: 3.4

Question: Which “Increase In intensity” value does the source give for C=CCCCCCCCCC=O [10-UNDECENAL] here?
Answer: 1.6

Question: And the Odour reduction value?
Answer: 3.3

Question: With CCCCCCCC1CCCC1=O (stereo not shown) [2-HEPTYL-CYCLOPENTANONE] as the molecule, how does the “Increase In intensity” value read?
Answer: 1.3

Question: And the Odour reduction value?
Answer: 4.5

Question: Which “Increase In intensity” value does the source give for CC(=O)O[C@H]1CC[C@H](C(C)(C)C)CC1 [ACETIC-TRANS-4-TERT.-BUTYL CYCLOHEXYL ESTER] here?
Answer: 0.2

Question: What about the Odour reduction value of the same molecule?
Answer: 5.1

Question: For C/C=C/C(=O)OC(C)CC(C)C (stereo not shown) [CROTONIC ACID-4-METHYL-2-[…]], which “Increase In intensity” value is on record?
Answer: −0.5

Question: And the Odour reduction value?
Answer: 3.5

Question: Which “Increase In intensity” value does the source give for CC(C)=CCCC(C)CCOCC=O (stereo not shown) here?
Answer: 1.5

Question: What about the Odour reduction value of the same molecule?
Answer: 3.8

Question: For CC(C)CCOC(=O)c1ccccc1O [SALICYLIC ACID 3-METHYLBUTYL ESTER], which “Increase In intensity” value is on record?
Answer: 1.0

Question: And the Odour reduction value?
Answer: 3.3

Question: Which “Increase In intensity” value does the source give for CCCCCCCCCCCC#N [UNDECYL CYANIDE] here?
Answer: 1.6

Question: And the Odour reduction value?
Answer: 3.3

Question: Which “Increase In intensity” value does the source give for COc1ccc(C=O)cc1 [4-METHOXYBENZALDEHYDE] here?
Answer: 1.0

Question: What about the Odour reduction value of the same molecule?
Answer: 4.7

Question: With CCOC(=O)OC1C(C)CCC(C)C1C (stereo not shown) [CARBONIC ACID-ETHYL-2.3.6-TRIMETHYL CYCLOHEXYL ESTER] as the molecule, how does the “Increase In intensity” value read?
Answer: 1.0

Question: And the Odour reduction value?
Answer: 4.6

Question: What does the source list for COC1(OC)CCCCCCCCCCC1 [CYCLODODECANONE DIMETHYL KETAL]?
Answer: Increase In intensity: 1.5; Odour reduction value: 4.0

Question: Which “Increase In intensity” value does the source give for Cc1cccc(CC(C)(C)C(C)O)c1 (stereo not drawn) [ALPHA.BETA.BETA.3-TETRAMETHYL-BENZENE PROPANOL] here?
Answer: 0.2

Question: What about the Odour reduction value of the same molecule?
Answer: 4.6

Question: What does the source list for CCCCCCCCCC(C)C=O (stereo not shown) [2-METHYLUNDECANAL]?
Answer: Increase In intensity: 0.7; Odour reduction value: 3.2

Question: For CCCC(C)C(=O)OCC (stereo not shown) [2-METHYL-PENTANOIC ACID ETHYL ESTER], which “Increase In intensity” value is on record?
Answer: 0.2

Question: And the Odour reduction value?
Answer: 4.4

Question: For CCCCCCC1(C)CCC(=O)O1 (stereo not shown) [4-METHYL-GAMMA-DECALACTONE], which “Increase In intensity” value is on record?
Answer: 0.9

Question: And the Odour reduction value?
Answer: 5.6

Question: Which results are given for COCc1ccccc1O [2-METHOXYMETHYLPHENOL]?
Answer: Increase In intensity: −2.1; Odour reduction value: 3.8

Question: With C/C=C(\C)C(=O)OC/C=C(\C)CCC=C(C)C [TIGLIC ACID GERANYL ESTER] as the molecule, how does the “Increase In intensity” value read?
Answer: 0.8

Question: And the Odour reduction value?
Answer: 4.5

Question: For CC(=O)c1cc2c(cc1C)C(C)(C)C(C)CC2(C)C (stereo not shown) [6-ACETYL-1,1,2,4,4,7-[…]], which “Increase In intensity” value is on record?
Answer: 0.0

Question: What about the Odour reduction value of the same molecule?
Answer: 3.1

Question: With C=CCc1ccc(O)c(OC)c1 [EUGENOL] as the molecule, how does the “Increase In intensity” value read?
Answer: 0.7

Question: What about the Odour reduction value of the same molecule?
Answer: 6.0

Question: For COC(=O)c1ccc(O)c(C)c1O [2,4-DIHYDROXY-3-METHYLBENZOIC ACID METHYL ESTER], which “Increase In intensity” value is on record?
Answer: 0.0

Question: And the Odour reduction value?
Answer: 3.0

Question: Which “Increase In intensity” value does the source give for C=CCOC(=O)CCCCC [ALLYL CAPRONATE] here?
Answer: 1.0

Question: What about the Odour reduction value of the same molecule?
Answer: 3.0

Question: Which “Increase In intensity” value does the source give for CCOC(=O)C1=C(C)C=CCC1(C)C [2,6,6-TRIMETHYL-1,3-CYCLOHEXADIENE CARBOXYLIC ACID ETHYL ESTER] here?
Answer: −2.8

Question: What about the Odour reduction value of the same molecule?
Answer: 3.0

Question: Which “Increase In intensity” value does the source give for COC(=O)C1CC2(C)C=CC1(C(C)C)CC2 (stereo not shown) [1-ISOPROPYL-4-METHYL-BICYCLO[2.2.2]OCT-5-ENE-2-CARBOXYLIC ACID METHYL ESTER] here?
Answer: −0.8

Question: And the Odour reduction value?
Answer: 4.2

Question: What does the source list for C/C(=C\C#N)CCc1ccccc1 [(E)-3-METHYL-5-PHENYL-2-PENTENE NITRILE]?
Answer: Increase In intensity: 1.2; Odour reduction value: 5.1

Question: Which “Increase In intensity” value does the source give for CC1=CCC=C(C)C(O)CCC=C(C)CC1 (stereo not shown) here?
Answer: 1.5

Question: What about the Odour reduction value of the same molecule?
Answer: 4.5

Question: With COC1C=C2C(C)(C)C3CCC2(C3)C(C)(C)C1 (stereo not shown) as the molecule, how does the “Increase In intensity” value read?
Answer: 0.5

Question: And the Odour reduction value?
Answer: 4.3

Question: For CC/C=C\CCOCCC#N [(Z)-3-(3-HEXENYLOXY)-PROPANENITRILE], which “Increase In intensity” value is on record?
Answer: 1.5

Question: And the Odour reduction value?
Answer: 5.0

same assay, conditions: Table 2 (raw materials without adequate malodour-reducing action); 1 μl fragrance + 5 μl 3-mercapto-3-methyl-hexan-1-ol (0.1% in DPG) in 7 l air, 15 h; scale 1 to 9, standard = 6

Question: For CC(C)=CCCC(C)CCO (stereo not shown) [CITRONELLOL, reference compound], which Increase in intensity is on record?
Answer: −0.2

Question: What about the Malodour reduction value of the same molecule?
Answer: 2.2

Question: With CCCCCCCC=O [OCTANAL, reference compound] as the molecule, how does the Increase in intensity read?
Answer: 0.9

Question: And the Malodour reduction value?
Answer: 2.4

Question: Which Increase in intensity does the source give for CC(=O)O[C@@H]1C[C@H]2CC[C@]1(C)C2(C)C (racemic) [ACETIC ACID ISOBORNYL ESTER, reference compound] here?
Answer: −0.5

Question: What about the Malodour reduction value of the same molecule?
Answer: 2.3

Question: For OCc1ccccc1 [BENZYL ALCOHOL, reference compound], which Increase in intensity is on record?
Answer: 2.0

Question: And the Malodour reduction value?
Answer: −2.0

Question: For CC(=O)OCc1ccccc1 [BENZYL ACETATE, reference compound], which Increase in intensity is on record?
Answer: 0.4

Question: What about the Malodour reduction value of the same molecule?
Answer: 2.5

Question: Which Increase in intensity does the source give for CCCCCC(C=O)=Cc1ccccc1 [reference compound] here?
Answer: 1.0

Question: And the Malodour reduction value?
Answer: 0.0

Question: With OCCCc1ccccc1 [PHENYL PROPYL ALCOHOL, reference compound] as the molecule, how does the Increase in intensity read?
Answer: 1.0

Question: What about the Malodour reduction value of the same molecule?
Answer: 0.0

same assay, conditions: Table 3 (adequate malodour-reducing action but significant increase in intensity); 1 μl fragrance + 5 μl 3-mercapto-3-methyl-hexan-1-ol (0.1% in DPG) in 7 l air, 15 h; scale 1 to 9, standard = 6

Question: With CCCCCCCCC=O [NONANAL, reference compound] as the molecule, how does the Increase in intensity read?
Answer: 2.1

Question: What about the Malodour-reduction value of the same molecule?
Answer: 3.0

Question: For CC(C)=CCCC(C)=CC#N [GERANYL NITRILE, 3,7-dimethyl-2,6-octadiene-1-nitrile, reference compound], which Increase in intensity is on record?
Answer: 3.0

Question: What about the Malodour-reduction value of the same molecule?
Answer: 5.0

Question: What does the source list for CC(=O)OC/C=C(\C)CCC=C(C)C [GERANYL ACETATE, reference compound]?
Answer: Increase in intensity: 2.2; Malodour-reduction value: 3.0

same assay, conditions: Table 4, tests with the mixtures (Example 2), according to the raw material test method

Question: For CCOC(=O)c1ccccc1C(=O)OCC [DEP, diethyl phthalate, reference compound], which Increase in intensity is on record?
Answer: −0.1

Question: What about the Malodour reduction value of the same molecule?
Answer: 0.0

same assay, conditions: prior-art fragrances examined by the applicant

Question: Which “intrinsic odour / perfumistic impression (in words)” value does the source give for CC(C)=CCCC(C)=CC#N [GERANYL NITRILE, 3,7-dimethyl-2,6-octadiene-1-nitrile, reference compound] here?
Answer: strong intrinsic odour

Question: What about the “reduction in the bad odour based on 3-mercapto-3-methyl-hexan-1-ol (in words)” value of the same molecule?
Answer: does show a reduction in the bad odour

same assay, conditions: solvents

Question: Which “effect on the intensity of the bad odour” value does the source give for CCOC(=O)c1ccccc1C(=O)OCC [DEP, diethyl phthalate, reference compound] here?
Answer: no effect

Question: What about the “effect on the total intensity” value of the same molecule?
Answer: no effect

— patent US20070298994A1, “Use of 3-Mercapto-3-Methyl-Hexan-1-Ol for Use as Malodour Standard” (SYMRISE GMBH & CO. KG, priority 2004, published 2007)
